Assay results as given in US20160263214A1, “CALCIUM FLUORIDE COMPOSITIONS” (GLAXOSMITHKLINE BIOLOGICALS S.A., priority 2013, published 2016).

Assay: Composite organic content by thermogravimetry
Type: physicochemical
Details: for Weight losses (single cell, temperature range not attributable): pure organic reference, one cell only; for Weight losses Between 0 and 200° C. under N2 / Weight losses Between 200 et 600° C. under N2 / Weight losses Between 600 et 800° C. under Air: thermogravimetry, dry material
Method: Dry material sample were submitted to thermogravimetry. Weight losses from RT to 600° C. under N2 and from 600° C. to 800° C. under O2 were recorded and represent by difference the quantity of burned organic material.

| Weight losses (single cell, temperature range not attributable) [%] | Weight losses Between 0 and 200° C. under N2 [%] | Weight losses Between 200 et 600° C. under N2 [%] | Weight losses Between 600 et 800° C. under Air [%] | Compound |
| --- | --- | --- | --- | --- |
| 100 | – | – | – | O=C(O)CCCCC(=O)O [Adipic acid] |
| – | 0.2 | 50.6 | 49.2 | O=c1[nH]cnc2nc[nH]c12 [Hypoxanthine] |
| 100 | – | – | – | Cc1c[nH]c(=O)[nH]c1=O [Thymine] |
| – | 0.1 | 74.6 | 25.3 | O=c1[nH]c(=O)c2[nH]c(=O)[nH]c2[nH]1 [Uric acid] |
